One series addresses T1, Recombinant human BACE1 (Homo sapiens, UniProt P56817).
T1 construct: purchased R&D Systems
Put plainly: Assay of BACE1 inhibiting activity. Type of series: biochemical. Particulars: 50% inhibitory concentration against enzymatic activity of recombinant human BACE1; Table 2.

The test system of series [1] is Neuroblastoma SH-SY5Y cells (SH/APPwt) with human wild-type β-APP excessively expressed. Put plainly: Measurement of β-amyloid (Aβ) production inhibitory effect in cell. The class given is cell-based. The following applies: amount needed to inhibit Aβ production by 50%, SH/APPwt cells, 24 hours, Table 3, read-out: IC50. As to the method: Neuroblastoma SH-SY5Y cells (SH/APPwt) with human wild-type β-APP excessively expressed therein were prepared at 8×10^5 cells/mL, and 150 μl portions thereof were inoculated into each well of a 96-well culture plate (Falcon). The cells were cultured for 2 hours at 37° C. in a 5% gaseous carbon dioxide incubator. Then, a solution which had been preliminarily prepared by adding and suspending the test compound (DMSO (dimethyl sulfoxide) solution) so as to be 2 μl/50 μl medium was added to the cell sap. Namely, the final DMSO concentration was 1%, and the amount of the cell culture was 200 μl. After the incubation was performed for 24 hours from the addition of the test compound, 100 μl of the culture supernatant was collected from each fraction. The amount of the Aβ in each fraction was measured.
The Aβ amount was measured as follows. 10 μl of a homogeneous time resolved fluorescence (HTRF) measurement reagent (Amyloid β 1-40 peptide; IBA Molecular Holding, S. A.) and 10 μl of the culture supernatant were put into a 384-well half area microplate (black microplate, Costar) and mixed with each other, and then left standing overnight at 4° C. while the light was shielded. Then, the fluorescence intensity (excitation wavelength: 337 nm, measurement wavelength: 620 nm and 665 nm) was measured with a Wallac 1420 multilabel counter (Perkin Elmer life sciences).

Series [2] can be described thus: Brain distribution studies. The following applies: brain/plasma; rat, intravenous 0.5 mg/mL/kg, 30 minutes later; read-out: brain Kp value (area ratio brain/plasma). Type of series: in vivo. As to the method:
Intravenous administration is carried out to a rat by 0.5 mg/mL/kg dosage of the compound. […] Then, the brain was extracted and 20-25% of homogenate thereof was prepared with distilled water. On the other hand, the obtained blood is used as plasma after centrifuging. Then, to the brain sample was added the control plasma at 1:1. To the plasma samples was added the control brains at 1:1. Each sample was measured using LC/MS/MS. The obtained area ratio (a brain/plasma) was used for the brain Kp value.

pIC50: −log10 of the molar value.

These results are taken from patent US20120238557A1, “AMINOTHIAZINE OR AMINOOXAZINE DERIVATIVE HAVING AMINO LINKER” (SHIONOGI & CO., LTD., priority 2009, published 2012).

The term pIC50 denotes the IC50 on a negative log10 scale, so that one unit is a factor of ten.

T1 sequence (P56817 46-501): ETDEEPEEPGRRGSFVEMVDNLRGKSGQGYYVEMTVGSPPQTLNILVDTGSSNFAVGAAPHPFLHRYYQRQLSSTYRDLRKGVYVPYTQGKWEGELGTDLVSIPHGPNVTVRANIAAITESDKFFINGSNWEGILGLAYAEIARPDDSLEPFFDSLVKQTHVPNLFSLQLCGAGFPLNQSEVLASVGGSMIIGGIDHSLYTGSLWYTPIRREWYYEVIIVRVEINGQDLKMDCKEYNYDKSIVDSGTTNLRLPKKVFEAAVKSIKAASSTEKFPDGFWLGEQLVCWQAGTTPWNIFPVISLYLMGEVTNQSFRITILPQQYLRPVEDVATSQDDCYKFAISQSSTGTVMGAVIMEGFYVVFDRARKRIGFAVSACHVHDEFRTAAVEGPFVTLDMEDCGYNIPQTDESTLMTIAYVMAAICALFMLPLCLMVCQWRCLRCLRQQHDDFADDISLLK

Consider `C[C@@]1(c2cc(Nc3ncccc3C#N)ccc2F)CCSC(N)=N1` [Compound I-11], for which the negative-log IC50 (pIC50) on Recombinant human BACE1 was 7.00; in series [1] it was 8.05. Further, the Kp at 0.5 h in series [2] is 2.2.
